In US10913727B2, “Modulators of the integrated stress pathway” (Calico Life Sciences LLC, priority 2016, dated 2021):

Tested on: HEK293T cells carrying the ATF4 luciferase reporter
Experiment: ATF4-Luc assay, in vitro model of Vanishing Cell White Matter Disease (VWMD)
Assay type: cell-based
Conditions: Homo sapiens, HEK-293T, 1 μg/mL tunicamycin, 7 hours, One Glo luminescence
Summary of the method: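 Stable HEK293T line with human ATF4 5′-UTR–firefly luciferase reporter treated with 1 μg/mL tunicamycin plus 200 nM compound for 7 h. Luminescence read; EC50 derived.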

Question: How did the EC50 turn out when `Cc1ccc(C(=O)NC23CC(NC(=O)COc4ccc(Cl)c(F)c4)(C2)C3)cc1CO` [Compound 452, N-{3-[2-(4-chloro-3-fluorophenoxy)acetamido]bicyclo[1.1.1]pentan-1-yl}-3-(hydroxymethyl)-4-methylbenzamide] was run?
Answer: 0.25 to 1 µM

Question: Which EC50 does the source give for `O=C(COc1ccc(Cl)c(F)c1)NC12CCC(NC(=O)c3cc(-n4ccnc4)ccn3)(CC1)CC2O` (centres unmarked) [Compound 934, N-{4-[2-(4-chloro-3-fluorophenoxy)acetamido]-3-hydroxybicyclo[2.2.2]octan-1-yl}-4-(1H-imidazol-1-yl)pyridine-2-carboxamide] here?
Answer: 1 to 2 µM

Question: With `O=C(COc1ccc(Cl)c(F)c1)NC12CC(Nc3ccnc(-c4ccc(Cl)cc4)n3)(C1)C2` [Compound 427, 2-(4-chloro-3-fluorophenoxy)-N-(3-{[2-(4-chlorophenyl)pyrimidin-4-yl]amino}bicyclo[1.1.1]pentan-1-yl)acetamide] as the compound, how does the EC50 read?
Answer: 0.25 to 1 µM

Question: With `Cn1cc(Cl)c(C(=O)NC23CC(NC(=O)COc4ccc(Cl)c(F)c4)(C2)C3)n1` [Compound 871, 4-chloro-N-{3-[2-(4-chloro-3-fluorophenoxy)acetamido]bicyclo[1.1.1]pentan-1-yl}-1-methyl-1H-pyrazole-3-carboxamide] as the compound, how does the EC50 read?
Answer: 0.25 to 1 µM

Question: Which EC50 does the source give for `N#Cc1cccc(C(=O)NC23CC(NC(=O)COc4ccc(Cl)c(F)c4)(C2)C3)c1` [Compound 366, N-{3-[2-(4-chloro-3-fluorophenoxy)acetamido]bicyclo[1.1.1]pentan-1-yl}-3-cyanobenzamide] here?
Answer: 0.05 to 0.25 µM

Question: Which EC50 does the source give for `CN(C(=O)c1cnc(C(F)F)cn1)C12CC(NC(=O)COc3ccc(Cl)c(F)c3)(C1)C2` [Compound 352, N-{3-[2-(4-chloro-3-fluorophenoxy)acetamido]bicyclo[1.1.1]pentan-1-yl}-5-(difluoromethyl)-N-methylpyrazine-2-carboxamide] here?
Answer: 0.05 to 0.25 µM

Question: With `Cc1cc2c(C(=O)NC34CC(NC(=O)COc5ccc(Cl)c(Cl)c5)(C3)C4)nccn2n1` [Compound 562, N-{3-[2-(3,4-dichlorophenoxy)acetamido]bicyclo[1.1.1]pentan-1-yl}-2-methylpyrazolo[1,5-a]pyrazine-4-carboxamide] as the compound, how does the EC50 read?
Answer: 0.25 to 1 µM

Question: `Cc1ccncc1C(=O)NC12CC(NC(=O)COc3ccc(Cl)c(Cl)c3)(C1)C2` [Compound 736, N-{3-[2-(3,4-dichlorophenoxy)acetamido]bicyclo[1.1.1]pentan-1-yl}-4-methylpyridine-3-carboxamide] was tested. Which EC50 did it give?
Answer: > 2 µM

Question: With `O=C(COc1ccc(Cl)c(F)c1)NC12CC(NC(=O)c3ccc(Cl)cc3)(C1)C2` [Compound 199, 4-chloro-N-{3-[2-(4-chloro-3-fluorophenoxy)acetamido]bicyclo[1.1.1]pentan-1-yl}benzamide] as the compound, how does the EC50 read?
Answer: 0.05 to 0.25 µM

Question: For `Cc1nc(C(=O)NC23CCC(NC(=O)COc4ccc(Cl)c(F)c4)(CC2)C(O)C3)cs1` (centres unmarked) [Compound 473, N-{4-[2-(4-chloro-3-fluorophenoxy)acetamido]-3-hydroxybicyclo[2.2.2]octan-1-yl}-2-methyl-1,3-thiazole-4-carboxamide], which EC50 is on record?
Answer: 0.05 to 0.25 µM

Question: Which EC50 does the source give for `O=C(COc1ccc(Cl)c(F)c1)NC12CC(Nc3ccnc4cc(Cl)ccc34)(C1)C2` [Compound 384, 2-(4-chloro-3-fluorophenoxy)-N-{3-[(7-chloroquinolin-4-yl)amino]bicyclo[1.1.1]pentan-1-yl}acetamide] here?
Answer: < 0.05 µM

Question: With `Cn1cnc2noc(C(=O)NC34CCC(NC(=O)COc5ccc(Cl)c(F)c5)(CC3)C(O)C4)c21` (centres unmarked) [Compound 412, N-{4-[2-(4-chloro-3-fluorophenoxy)acetamido]-3-hydroxybicyclo[2.2.2]octan-1-yl}-4-methyl-4H-imidazo[4,5-c][1,2]oxazole-3-carboxamide] as the compound, how does the EC50 read?
Answer: > 2 µM

Question: For `Cc1cnc2cccc(C(=O)NC34CC(NC(=O)COc5ccc(Cl)c(F)c5)(C3)C4)c2n1` [Compound 843, N-{3-[2-(4-chloro-3-fluorophenoxy)acetamido]bicyclo[1.1.1]pentan-1-yl}-3-methylquinoxaline-5-carboxamide], which EC50 is on record?
Answer: > 2 µM

Question: How did the EC50 turn out when `CC(C)c1cc(C(=O)NC23CCC(NC(=O)COc4ccc(Cl)c(F)c4)(CC2)C(O)C3)on1` (centres unmarked) [Compound 577, N-{4-[2-(4-chloro-3-fluorophenoxy)acetamido]-3-hydroxybicyclo[2.2.2]octan-1-yl}-3-(propan-2-yl)-1,2-oxazole-5-carboxamide] was run?
Answer: 0.05 to 0.25 µM

Question: With `O=C(COc1ccc(Cl)c(F)c1)NC12CCC(NC(=O)c3cnc4ccccn34)(CC1)CC2O` (centres unmarked) [Compound 595, N-{4-[2-(4-chloro-3-fluorophenoxy)acetamido]-3-hydroxybicyclo[2.2.2]octan-1-yl}imidazo[1,2-a]pyridine-3-carboxamide] as the compound, how does the EC50 read?
Answer: 1 to 2 µM

Question: With `O=C(COc1ccc(Cl)c(F)c1)NC12CCC(NS(=O)(=O)c3ccc(C(F)(F)F)cc3)(CC1)[C@@H](O)C2` [Compound 663, 2-(4-chloro-3-fluorophenoxy)-N-[(3S)-3-hydroxy-4-{[4-(trifluoromethyl)benzene-1-sulfonyl]amino}bicyclo[2.2.2]octan-1-yl]acetamide] as the compound, how does the EC50 read?
Answer: 0.05 to 0.25 µM

Question: For `O=C(COc1ccc(Cl)c(F)c1)NC12CCC(NC(=O)c3ccc(C(F)(F)F)cn3)(CC1)C[C@@H]2O` [Compound 728, N-{(3S)-4-[2-(4-chloro-3-fluorophenoxy)acetamido]-3-hydroxybicyclo[2.2.2]octan-1-yl}-5-(trifluoromethyl)pyridine-2-carboxamide], which EC50 is on record?
Answer: < 0.05 µM

Question: For `O=C(COc1ccc(Cl)c(F)c1)NC12CCC(NC(=O)c3cnc(-c4ccccc4)o3)(CC1)C[C@@H]2O` [Compound 931, N-{(3S)-4-[2-(4-chloro-3-fluorophenoxy)acetamido]-3-hydroxybicyclo[2.2.2]octan-1-yl}-2-phenyl-1,3-oxazole-5-carboxamide], which EC50 is on record?
Answer: < 0.05 µM

Question: With `Cc1cc2c(NC34CC(NC(=O)COc5ccc(Cl)c(F)c5)(C3)C4)nccn2n1` [Compound 394, 2-(4-chloro-3-fluorophenoxy)-N-{3-[(2-methylpyrazolo[1,5-a]pyrazin-4-yl)amino]bicyclo[1.1.1]pentan-1-yl}acetamide] as the compound, how does the EC50 read?
Answer: < 0.05 µM

Question: `Cc1cc(Cl)cnc1C(=O)NC12CC(NC(=O)COc3ccc(Cl)c(F)c3)(C1)C2` [Compound 777, 5-chloro-N-{3-[2-(4-chloro-3-fluorophenoxy)acetamido]bicyclo[1.1.1]pentan-1-yl}-3-methylpyridine-2-carboxamide] was tested. Which EC50 did it give?
Answer: > 2 µM

Question: With `Cc1nc(C(=O)NC23CCC(NC(=O)COc4ccc(Cl)c(F)c4)(CC2)C(O)C3)ccc1C#N` (centres unmarked) [Compound 916, N-{4-[2-(4-chloro-3-fluorophenoxy)acetamido]-3-hydroxybicyclo[2.2.2]octan-1-yl}-5-cyano-6-methylpyridine-2-carboxamide] as the compound, how does the EC50 read?
Answer: 0.05 to 0.25 µM

Question: Which EC50 does the source give for `O=C(COc1ccc(Cl)c(F)c1)NC12CC(Nc3c(Cl)cnn(CC(F)(F)F)c3=O)(C1)C2` [Compound 417, 2-(4-chloro-3-fluorophenoxy)-N-(3-{[5-chloro-3-oxo-2-(2,2,2-trifluoroethyl)-2,3-dihydropyridazin-4-yl]amino}bicyclo[1.1.1]pentan-1-yl)acetamide] here?
Answer: 0.25 to 1 µM

Question: How did the EC50 turn out when `O=C(COc1ccc(Cl)c(F)c1)NC12CC(NC(=O)c3cnc4ncccc4n3)(C1)C2` [Compound 864, N-{3-[2-(4-chloro-3-fluorophenoxy)acetamido]bicyclo[1.1.1]pentan-1-yl}pyrido[2,3-b]pyrazine-2-carboxamide] was run?
Answer: > 2 µM

Question: Which EC50 does the source give for `Cn1nc(C(=O)NC23CCC(NC(=O)COc4ccc(Cl)c(F)c4)(CC2)C(O)C3)cc1C(F)(F)F` (centres unmarked) [Compound 565, N-{4-[2-(4-chloro-3-fluorophenoxy)acetamido]-3-hydroxybicyclo[2.2.2]octan-1-yl}-1-methyl-5-(trifluoromethyl)-1H-pyrazole-3-carboxamide] here?
Answer: 0.05 to 0.25 µM

Question: `O=C(COc1ccc(Cl)c(F)c1)NC12CC(Nc3nccn4cccc34)(C1)C2` [Compound 434, 2-(4-chloro-3-fluorophenoxy)-N-{3-[(pyrrolo[1,2-a]pyrazin-1-yl)amino]bicyclo[1.1.1]pentan-1-yl}acetamide] was tested. Which EC50 did it give?
Answer: 0.25 to 1 µM

Question: Which EC50 does the source give for `O=C(COc1ccc(Cl)c(F)c1)NC12CC(NC(=O)c3cc4n(n3)CCC4)(C1)C2` [Compound 259, N-{3-[2-(4-chloro-3-fluorophenoxy)acetamido]bicyclo[1.1.1]pentan-1-yl}-5,6-dihydro-4H-pyrrolo[1,2-b]pyrazole-2-carboxamide] here?
Answer: 0.25 to 1 µM

Question: For `CC(=O)c1ccnc(C(=O)NC23CC(NC(=O)COc4ccc(Cl)c(F)c4)(C2)C3)c1` [Compound 501, 4-acetyl-N-{3-[2-(4-chloro-3-fluorophenoxy)acetamido]bicyclo[1.1.1]pentan-1-yl}pyridine-2-carboxamide], which EC50 is on record?
Answer: 1 to 2 µM

Question: `Cc1cc(C(=O)NC23CC(NC(=O)COc4ccc(Cl)c(F)c4)(C2)C3)n(CC(C)(C)O)n1` [Compound 459, N-{3-[2-(4-chloro-3-fluorophenoxy)acetamido]bicyclo[1.1.1]pentan-1-yl}-1-(2-hydroxy-2-methylpropyl)-3-methyl-1H-pyrazole-5-carboxamide] was tested. Which EC50 did it give?
Answer: > 2 µM

Question: For `O=C(COc1ccc(Cl)c(F)c1)NC12CC(NC(=O)c3ccccn3)(C1)C2` [Compound 129, N-{3-[2-(4-chloro-3-fluorophenoxy)acetamido]bicyclo[1.1.1]pentan-1-yl}pyridine-2-carboxamide], which EC50 is on record?
Answer: 0.05 to 0.25 µM

Question: `CC(C)Cc1cc(C(=O)NC23CC(NC(=O)COc4ccc(Cl)c(F)c4)(C2)C3)on1` [Compound 348, N-{3-[2-(4-chloro-3-fluorophenoxy)acetamido]bicyclo[1.1.1]pentan-1-yl}-3-(2-methylpropyl)-1,2-oxazole-5-carboxamide] was tested. Which EC50 did it give?
Answer: 0.05 to 0.25 µM

Question: `COCn1ccc(C(=O)NC23CC(NC(=O)COc4ccc(Cl)c(F)c4)(C2)C3)n1` [Compound 260, N-{3-[2-(4-chloro-3-fluorophenoxy)acetamido]bicyclo[1.1.1]pentan-1-yl}-1-(methoxymethyl)-1H-pyrazole-3-carboxamide] was tested. Which EC50 did it give?
Answer: 0.25 to 1 µM

Question: Which EC50 does the source give for `CC(C)c1csc(C(=O)NC23CC(NC(=O)COc4ccc(Cl)c(F)c4)(C2)C3)n1` [Compound 406, N-{3-[2-(4-chloro-3-fluorophenoxy)acetamido]bicyclo[1.1.1]pentan-1-yl}-4-(propan-2-yl)-1,3-thiazole-2-carboxamide] here?
Answer: 0.05 to 0.25 µM
